O=C(O)c1ccccc1
solubility (mole fraction)
Conditions | 283.15 K | 288.15 K | 293.15 K | 298.15 K | 303.15 K | 308.15 K | 313.15 K | 318.15 K | 323.15 K | 328.15 K
in 2-pentanone | 0.163 | 0.18 | 0.196 | 0.215 | 0.234 | 0.256 | 0.279 | 0.315 | 0.349 | 0.388
in diacetone alcohol | 0.234 | 0.251 | 0.269 | 0.287 | 0.306 | 0.315 | 0.336 | 0.367 | 0.396 | 0.426
in isooctane | 0.002 | 0.003 | 0.005 | 0.007 | 0.01 | 0.013 | 0.018 | 0.023 | 0.031 | 0.04
in methyl acetate | 0.125 | 0.152 | 0.175 | 0.198 | 0.213 | 0.237 | 0.26 | 0.282 | 0.318 | 0.348
in n-pentyl acetate | 0.091 | 0.112 | 0.133 | 0.159 | 0.179 | 0.198 | 0.226 | 0.252 | 0.282 | 0.316
in tributyl phosphate | 0.492 | 0.507 | 0.522 | 0.53 | 0.543 | 0.553 | 0.563 | 0.581 | 0.6 | 0.631
